Test: phenyl-p-benzoquinone induced writhing test in mice (mouse antiphenylquinone writhing test), oral
Assay type: in vivo, mouse (male CF1)
Settings: for % MICE BLOCKED: oral
Description: The phenyl-p-benzoquinone induced writhing test in mice [H. Blumberg et al., Proc. Soc. […] The method simply consists of reading the % ED50 DOSE for each dose ratio on the best fit regression analysis curve from the mouse isobologram, multiplying each component by its effective species dose, and then forming the ratio of the amount of nalbuphine to 4,5-bis(4-methoxyphenyl)-2-(trifluoromethylsulfonyl)-1 H-imidazole. […] [E. W. Pelikan, The Pharmacologist, 1, 73 (1959). ]
Male CF1 mice obtained from Charles River Breeding Laboratories, fasted for 16-22 hours and weighing 18-22 g at the time of testing are used throughout. All mice are dosed sequentially by the oral route with suspensions of 4,5-bis(4-methoxyphenyl)-2-(trifluoromethylsulfonyl)-1H-imidazole and/or of nalbuphine hydrochloride. A dosing volume of 10 ml/kg is used for each sequential solution or suspension. […] All doses are coded and the test is performed under a code not known to the observer.
A stock suspension of 4,5-bis(4-methoxyphenyl)-2-trifluoromethylsulfonyl)-1H-imidazole is prepared by mixing 8.0 mg 4,5-bis(4-methoxyphenyl)-2-(trifluoromethylsulfonyl)-1H-imidazole with 80 ml of an aqueous vehicle containing 2% by volume of Tween 80®, a pharmacological dispersant manufactured by Fisher Scientific Company and containing 100% polysorbate 80, and 1% by weight of Methocel® MC powder, a suspending agent manufactured by DOW Chemical Company and containing 100% methylcellulose, in distilled water. The mixture is sonicated at 150 watts for 1-2 minutes with an ultrasound system, then shaken for two hours at 280 oscillations/minute with 15-20 gm of glass beads. The resultant suspension contains 0.1 mg/ml of 4,5-bis(4-methoxyphenyl)-2-(trifluoromethylsulfonyl)-1H-imidazole; all dosing suspensions are prepared by dilution of the stock suspension with the Methocel®/Tween 80® vehicle; the vehicle control is Methocel®/Tween 80®. All suspensions are prepared fresh daily.
Stock solutions of nalbuphine HCl are prepared by dissolving dry nalbuphine hydrochloride powder with distilled water. All dosing solutions are prepared by dilution of the stock solution with distilled water; the vehicle control is distilled water.
As indicated above, the standard procedure based upon the prevention of phenyl-p-benzoquinone induced writhing in mice is utilized to detect and quantify the analgetic activity of compositions containing nalbuphine and 4,5-bis(4-methoxyphenyl)-2-(trifluoromethylsulfonyl)-1H-imidazole.
Mice, intubated with various doses of nalbuphine hydrochloride, 4,5-bis(4-methoxyphenyl)-2-(trifluoromethylsulfonyl)-1H-imidazole, combined doses of nalbuphine hydrochloride and 4,5-bis(4-methoxyphenyl)-2-(trifluoromethylsulfonyl)-1H-imidazole, or vehicle, are injected intraperitoneally with a challenge dose of phenyl-p-benzoquinone 5 minutes prior to the designated observation period. The phenyl-p-benzoquinone is prepared as an 0.1 mg/ml solution in 5% by volume of ethanol in water; the writhing dose is 1.25 mg/kg injected in a volume of 0.25 ml/20 g. For scoring purposes a "writhe" is indicated by whole body stretching or contraction of the abdomen; mice are observed 10 minutes for the presence or absence of writhing beginning 5 minutes after receiving the phenyl-p-benzoquinone dose. Each mouse is used only once, then discarded. […] This dosage as described herein is referred to as the ED50. All ED50 values and their 95% confidence limits are determined numerically by the computer-assisted methods of Finney. [D. J. Finney, "Probit Analysis," Third Edition, Cambridge University Press, Cambridge, England, 1971].

With `COc1ccc(-c2nc(S(=O)(=O)C(F)(F)F)[nH]c2-c2ccc(OC)cc2)cc1` [CII, 4,5-bis(4-methoxyphenyl)-2-(trifluoromethylsulfonyl)-1H-imidazole] the “% MICE BLOCKED” value (40 min, CII 0.063 mg/kg) was 10.0%, the “% MICE BLOCKED” value (40 min, CII 0.125 mg/kg) was 46.7% and the “% MICE BLOCKED” value (40 min, CII 0.250 mg/kg) was 73.3%. The “% MICE BLOCKED” value (40 min, CII 0.500 mg/kg) was 93.3%, the “ED50 at 40 min, CII” value (40 min post oral dosing, CII part of the ED50 dose, N = 30 mice/dose) was 0.161 mg/kg and the “% MICE BLOCKED” value (80 min, CII 0.03 mg/kg) was 13.3%. For the same compound, the “% MICE BLOCKED” value (80 min, CII 0.06 mg/kg) was 26.7%, the “% MICE BLOCKED” value (80 min, CII 0.12 mg/kg) was 56.7% and the “% MICE BLOCKED” value (80 min, CII 0.24 mg/kg) was 63.3%. The “ED50 at 80 min, CII” value (80 min post oral dosing, CII part of the ED50 dose, N = 30 mice/dose) was 0.135 mg/kg.
In the case of `Oc1ccc2c3c1O[C@H]1[C@@H](O)CC[C@@]4(O)[C@@H](C2)N(CC2CCC2)CC[C@]314` [Nalbuphine, (-)-17-(cyclobutylmethyl)-4,5α-epoxymorphinan-3,6α,14-triol], the “% MICE BLOCKED” value (40 min, nalbuphine HCl 5.85 mg/kg) is reported as 16.7%, the “% MICE BLOCKED” value (40 min, nalbuphine HCl 11.7 mg/kg) is reported as 30.0% and the “% MICE BLOCKED” value (40 min, nalbuphine HCl 23.4 mg/kg) is reported as 43.3%. The “% MICE BLOCKED” value (40 min, nalbuphine HCl 46.8 mg/kg) was 70.0%, the “% MICE BLOCKED” value (40 min, nalbuphine HCl 93.6 mg/kg) was 83.3% and the “ED50 at 40 min, nalbuphine HCl” value (40 min post oral dosing, nalbuphine HCl part of the ED50 dose, N = 30 mice/dose) was 28.9 mg/kg. For the same compound, the “% MICE BLOCKED” value (80 min, nalbuphine HCl 24.5 mg/kg) was 6.7%, the “% MICE BLOCKED” value (80 min, nalbuphine HCl 49 mg/kg) was 26.7% and the “% MICE BLOCKED” value (80 min, nalbuphine HCl 98 mg/kg) was 40.0%. The “% MICE BLOCKED” value (80 min, nalbuphine HCl 196 mg/kg) was 56.7%, the “% MICE BLOCKED” value (80 min, nalbuphine HCl 392 mg/kg) was 83.3% and the “ED50 at 80 min, nalbuphine HCl” value (80 min post oral dosing, nalbuphine HCl part of the ED50 dose, N = 30 mice/dose) was 141 mg/kg.

Source: patent US4402962A, “Analgesic mixture of nalbuphine and 4,5-bis(4-methoxyphenyl)-2-(trifluoromethylsulfonyl)-1H-imidazole” (E. I. Du Pont de Nemours and Company, priority 1982, dated 1983)
